How the values were obtained:
[1] = biological target: T1, rat adrenergic α1B receptor (Rattus norvegicus, UniProt P15823); experiment: Radioligand binding, adrenergic α1B receptor ([3H]Prazosin); conditions: 0.1 μM compound, Wistar rat liver, read-out: Percentage inhibition of ligand binding, Adrenergic α1B
T1 construct: rat adrenergic α1B receptor obtained from Wistar Rat liver; from tissue; host or cells: Wistar rat liver
T1 sequence (P15823 1-515): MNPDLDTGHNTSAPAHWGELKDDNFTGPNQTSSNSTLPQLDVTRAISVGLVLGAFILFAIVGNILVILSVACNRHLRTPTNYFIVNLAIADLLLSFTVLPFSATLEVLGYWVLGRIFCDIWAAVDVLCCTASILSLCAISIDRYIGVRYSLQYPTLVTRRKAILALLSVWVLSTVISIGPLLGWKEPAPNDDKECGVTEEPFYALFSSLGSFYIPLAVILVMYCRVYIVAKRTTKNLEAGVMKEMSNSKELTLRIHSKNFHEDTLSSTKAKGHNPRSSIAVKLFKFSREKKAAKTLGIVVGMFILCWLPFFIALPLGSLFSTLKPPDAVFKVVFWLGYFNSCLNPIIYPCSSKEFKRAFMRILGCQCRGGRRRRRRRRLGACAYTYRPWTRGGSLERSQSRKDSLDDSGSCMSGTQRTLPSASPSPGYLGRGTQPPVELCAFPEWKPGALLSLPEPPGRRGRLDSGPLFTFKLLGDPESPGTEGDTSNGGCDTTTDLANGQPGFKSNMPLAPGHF
Method in brief: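 Wistar rat liver α1B receptor preparation incubated with 0.25 nM [3H]prazosin and compound for 60 min at 25° C in 50 mM Tris-HCl pH 7.4, 0.5 mM EDTA; nonspecific binding defined with 10 μM phentolamine.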

[2] = biological target: T2, human recombinant adrenergic α1D receptor (Homo sapiens, UniProt P25100); experiment: Radioligand binding, adrenergic α1D receptor ([3H]Prazosin); conditions: 0.1 μM compound; HEK-293 cells; 0.6 nM [3H]Prazosin; read-out: Percentage inhibition of ligand binding, Adrenergic α1D
T2 construct: expressed in transfected cells; host or cells: HEK-293
T2 sequence (P25100 1-572): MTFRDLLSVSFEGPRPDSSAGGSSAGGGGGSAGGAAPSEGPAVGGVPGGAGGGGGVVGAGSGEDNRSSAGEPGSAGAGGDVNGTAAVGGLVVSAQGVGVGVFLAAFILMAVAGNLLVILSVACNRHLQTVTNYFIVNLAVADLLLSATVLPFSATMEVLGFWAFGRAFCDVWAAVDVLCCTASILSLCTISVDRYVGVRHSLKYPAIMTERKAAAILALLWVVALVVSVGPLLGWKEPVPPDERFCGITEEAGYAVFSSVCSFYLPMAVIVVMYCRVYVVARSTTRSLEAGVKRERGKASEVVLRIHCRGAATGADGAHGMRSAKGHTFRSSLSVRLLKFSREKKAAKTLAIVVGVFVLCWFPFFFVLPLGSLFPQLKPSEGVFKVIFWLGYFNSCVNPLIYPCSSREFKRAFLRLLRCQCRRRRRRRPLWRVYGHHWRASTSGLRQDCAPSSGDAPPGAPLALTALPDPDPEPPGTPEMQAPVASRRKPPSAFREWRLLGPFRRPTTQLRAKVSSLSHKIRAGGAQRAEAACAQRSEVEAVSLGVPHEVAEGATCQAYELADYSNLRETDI
Protocol: Compounds were incubated with 0.6 nM [3H]Prazosin for 60 min at 25° C. Non-specific binding was estimated in the presence of 10 μM phentolamine. Receptor proteins were filtered and washed, the filters were then counted to determine [3H]Prazosin specifically bound. Compounds were screened at 1 μM or lower, using 1% DMSO as vehicle. Biochemical assay results are presented as the percent inhibition of specific binding in Table 2.

[3] = biological target: T3, human recombinant adrenergic α2A receptor (Homo sapiens, UniProt P08913); experiment: Radioligand binding, adrenergic α2A receptor ([3H]MK-912); conditions: 0.1 μM compound; Sf9 cells; 1 nM [3H]MK-912; read-out: Percentage inhibition of ligand binding, Adrenergic α2A
T3 construct: expressed in transfected cells; host or cells: insect Sf9 cells
T3 sequence (P08913 1-465): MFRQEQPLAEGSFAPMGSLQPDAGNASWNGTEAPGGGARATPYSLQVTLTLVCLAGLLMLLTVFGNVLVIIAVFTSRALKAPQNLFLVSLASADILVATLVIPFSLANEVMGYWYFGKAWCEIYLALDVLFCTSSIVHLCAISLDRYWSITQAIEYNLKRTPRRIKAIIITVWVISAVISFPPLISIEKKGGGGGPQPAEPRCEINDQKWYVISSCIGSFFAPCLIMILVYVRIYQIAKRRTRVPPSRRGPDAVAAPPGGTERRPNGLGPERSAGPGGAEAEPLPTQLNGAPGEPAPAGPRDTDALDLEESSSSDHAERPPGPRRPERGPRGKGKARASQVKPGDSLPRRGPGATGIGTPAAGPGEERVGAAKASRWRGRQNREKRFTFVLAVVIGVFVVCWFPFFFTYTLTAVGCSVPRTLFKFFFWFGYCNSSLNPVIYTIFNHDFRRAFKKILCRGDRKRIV
Method in brief: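 Percent inhibition of specific [3H]MK-912 (1 nM) binding measured by filtration counting, compounds tested at ≤1 μM in 1% DMSO. Receptor: human α2A from Sf9 cells; incubation 60 min, 25 °C, pH 7.4; 10 μM WB-4101 defined nonspecific binding.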

[4] = biological target: T4, human recombinant adrenergic α2B receptor (Homo sapiens, UniProt P18089); experiment: Radioligand binding, adrenergic α2B receptor ([3H]Rauwolscine); conditions: 0.1 μM compound, CHO-K1 cells, read-out: Percentage inhibition of ligand binding, Adrenergic α2B
T4 construct: expressed in transfected cells; host or cells: CHO-K1
T4 sequence (P18089 1-450): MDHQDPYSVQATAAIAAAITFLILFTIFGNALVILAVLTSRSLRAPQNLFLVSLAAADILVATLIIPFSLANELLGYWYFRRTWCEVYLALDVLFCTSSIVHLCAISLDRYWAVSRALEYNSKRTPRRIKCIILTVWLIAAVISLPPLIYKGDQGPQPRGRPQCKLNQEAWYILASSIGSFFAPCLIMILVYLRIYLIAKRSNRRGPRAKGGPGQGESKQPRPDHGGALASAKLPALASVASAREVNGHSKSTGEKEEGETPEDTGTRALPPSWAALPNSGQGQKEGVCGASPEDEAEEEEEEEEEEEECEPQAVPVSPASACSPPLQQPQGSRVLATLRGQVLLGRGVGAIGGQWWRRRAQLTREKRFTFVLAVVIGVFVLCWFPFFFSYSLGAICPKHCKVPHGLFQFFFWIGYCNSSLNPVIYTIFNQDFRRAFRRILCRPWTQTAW
Method in brief: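 Percent inhibition of specific [3H]Rauwolscine (2.5 nM) binding, compounds at ≤1 μM, 1% DMSO vehicle, 10 μM prazosin defining nonspecific. Receptor: human α2B expressed in CHO-K1 cells, 60 min incubation at 25 °C in Tris-HCl pH 7.4 buffer (MgCl2, EDTA, BSA); filtered, washed, counted.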

**Q.** How did the inhibition at 0.1 µM [1] turn out when `Cc1ccc2c(c1)c1c(n2-c2cccc(-c3sccc3C)c2)CCN(C)C1` [Compound 43, 2,8-dimethyl-5-(3-(3-methylthiophen-2-yl)phenyl)-2,3,4,5-tetrahydro-1H-pyrido[4,3-b]indole] was run?
**A.** 9%

**Q.** And the inhibition at 0.1 µM [2]?
**A.** 3%

**Q.** What about the inhibition at 0.1 µM [3] of the same molecule?
**A.** 31%

**Q.** And the inhibition at 0.1 µM [4]?
**A.** 6%

**Q.** For `Cc1ccc2c(c1)c1c(n2-c2ccc(-c3ccc(C)nc3)cn2)CCN(C)C1` [Compound No. 156, 2,8-dimethyl-5-(6′-methyl-3,3′-bipyridin-6-yl)-2,3,4,5-tetrahydro-1H-pyrido[4,3-b]indole], which inhibition at 0.1 µM [1] is on record?
**A.** 78%

**Q.** And the inhibition at 0.1 µM [2]?
**A.** 69%

**Q.** What about the inhibition at 0.1 µM [3] of the same molecule?
**A.** 40%

**Q.** What about the inhibition at 0.1 µM [4] of the same molecule?
**A.** 78%
